Measurements as given in US9504747B2, “Lipids and lipid compositions for the delivery of active agents” (Novartis AG, priority 2013, dated 2016).
Several values for one entry are separate records, joined by “and”; a condition that tells them apart may be missing. Equal entries are not always repeated.

Key:
[1] = Particle size of the lipid nanoparticle (dynamic light scattering, Malvern Zetasizer); format: physicochemical; conditions: Table 4, FVII siRNA LNP, Z-average
Text: (§1) The lipid nanoparticles have a size of about 1 to about 2,500 nm, about 1 to about 1,500 nm, about 1 to about 1,000 nm, in a sub-embodiment about 50 to about 600 nm, in a sub-embodiment about 50 to about 400 nm, in a sub-embodiment about 50 to about 250 nm, and in a sub-embodiment about 50 to about 150 nm. Unless indicated otherwise, all sizes referred to herein are the average sizes (diameters) of the fully formed nanoparticle, as measured by dynamic light scattering on a Malvern Zetasizer. The nanoparticle sample is diluted in phosphate buffered saline (PBS) so that the count rate is approximately 200-400 kcts. The data is presented as a weighted average of the intensity measure. The lipid nanoparticles (LNPs) were formed by mixing equal volumes of lipids dissolved in alcohol with siRNA dissolved in a citrate buffer by an impinging jet process. […] The siRNA to total lipid ratio is approximately 0.05 (wt/wt). Where a LNP formulation contains four lipid components, the molar ratios correspond to the type of lipid as it appears in the first four columns of the table, in the order that they appear. The ratio of the lipids ranges from 20 to 70 mole percent for the cationic lipid with a target of 40-60, the mole percent of helper lipid ranges from 20 to 70 with a target of 30 to 50, the mole percent of neutral lipid ranges from 0-30, the mole percent of PEG lipid has a range from 1 to 6 with a target of 2 to 5. The concentration of siRNA solution ranges from 0.7 to 1.0 mg/mL with a target of 0.8 to 0.9 mg/mL in a sodium citrate: sodium chloride buffer pH 4-6, with a target of 4.5-5.5. The LNPs are formed by mixing equal volumes of lipid solution in ethanol with siRNA dissolved in a citrate buffer by an impinging jet process through a mixing device with ID ranging from 0.25 to 2.0 mm at a flow rate from 10 to 640 mL/min. The mixed LNP solution is held at room temperature for 0-24 hrs prior to a dilution step. […] The final product is sterile filtered and stored at 4° C. Unless indicated otherwise, all particle size measurements referred to in Tables 4 and 5 are the Z-average particle size of the fully formed nanoparticle, as measured by dynamic light scattering on a Malvern Zetasizer. The nanoparticle sample was diluted in phosphate buffered saline (PBS) so that the count rate is approximately 200-400 kcts.

[2] = pKa measurement of the cationic lipid (TNS fluorescence vs pH); format: physicochemical; conditions: probe TNS (fluorescent probe), pKa of the cationic lipid of formula (I)
Protocol: Unless indicated otherwise, all pKa's referred to herein were measured at standard temperature and pressure. Also, unless otherwise indicated, all references to pKa are references to pKa measured using the following technique. 2 mM solution of lipid in ethanol was prepared by weighing the lipid and then dissolving it in ethanol. 0.3 mM solution of fluorescent probe TNS in ethanol:methanol 9:1 was prepared by first making 3 mM solution of TNS in methanol and then diluting to 0.3 mM with ethanol. An aqueous buffer containing 200 mM sodium phosphate dibasic and 100 mM citric acid was prepared. […] Using the Hamilton Microlab Star high throughput liquid handler and Hamilton run control software Software, 7.5 uL of probe/lipid mix were added to 242.5 uL of buffer in a 1 mL 96 well plate (model NUNC 260252, […] Nunc International). This was done with all twelve buffers. After mixing in 1 mL 96 well plate, 100 uL of each probe/lipid/buffer mixture was transferred to a 250 uL black with clear bottom 96 well plate (model COSTAR 3904, Corning). The fluorescence measurements are carried out on the SpectraMax M5 spectrophotometer using software SoftMax pro 5.2 and following parameters: After the measurement, the background fluorescence value of an empty well on the 96 well plate was subtracted from each probe/lipid/buffer mixture. The fluorescence intensity values were then normalized to the value at lowest pH. The normalized fluorescence intensity vs. pH chart was then plotted in the Microsoft Excel software. The twelve points were connected with a smooth line. The point on the line at which the normalized fluorescence intensity was equal to 0.5 was found. […] The pKa determined using this method is precise to about 0.1 pKa units.

[3] = Polydispersity index (PDI) of the lipid nanoparticle (dynamic light scattering); format: physicochemical
Text: as §1, with “The” for “The lipid nanoparticles have a size of about 1 to about 2,500 nm, about 1 to about 1,500 nm, about 1 to about 1,000 nm, in a sub-embodiment about 50 to about 600 nm, in a sub-embodiment about 50 to about 400 nm, in a sub-embodiment about 50 to about 250 nm, and in a sub-embodiment about 50 to about 150 nm. Unless indicated otherwise, all sizes referred to herein are the average sizes (diameters) of the fully formed nanoparticle, as measured by dynamic light scattering on a Malvern Zetasizer. The nanoparticle sample is diluted in phosphate buffered saline (PBS) so that the count rate is approximately 200-400 kcts. The data is presented as a weighted average of the intensity measure. The”, “all PDIs” for “all particle size measurements”, “to herein” for “to in Tables 4 and 5”, “the PDI” for “the Z-average particle size”, “rate was” for “rate is”, “kcts. The data is presented in Tables 4 and 5 as a weighted average of the intensity measure.” for “kcts.”

[4] = test system: respiratory syncytial virus F protein; assay: Immunization studies: anti-RSV-F titers after liposome-delivered vA317 self-replicating RNA; format: in vivo; conditions: BALB/c mice, Course A = days 0 & 21, liposomes with 0.1 μg vA317 replicon (naked control 1 μg)
Protocol: BALB/c were immunized with liposomes comprising DSPC, cholesterol, and various lipids of the invention (or, for comparison, the cationic lipid 1,2-dilinoleyloxy-N,N-dimethyl-3-aminopropane or ‘DLinDMA’). The liposomes encapsulated 0.1 μg of “vA317” self-replicating RNA replicon which encodes respiratory syncytial virus F protein (see WO2012/031043). […] Doses were given either on days 0 & 21 or days 0 & 42. Immune responses were assessed 2 weeks after each dose (2wp1, 2wp2), and in some cases also at 4 weeks after the second dose (4wp2). Four series of experiments were performed, each with its own naked control.

[5] = Chol/DSPC/stealth lipid S010, molar ratio 45/44/9/2
[6] = Table 4, FVII siRNA LNP, Chol/DSPC/stealth lipid S010, 45/44/9/2
[7] = Chol/DSPC/stealth lipid PEG-DMG, molar ratio 45/44/9/2
[8] = Table 4, FVII siRNA LNP, Chol/DSPC/stealth lipid PEG-DMG, 45/44/9/2

SMILES | Size (nm) [1, 5] | pKa ([2]; Table 4) | PDI [3, 6] | Size (nm) [1, 7] | PDI [3, 8] | also measured
CCCCCCCCCCCCCC(=O)OCCCCOc1cc(CN(C)C)cc(OCCCCOC(=O)CCCCCCCCCCCCC)c1 [Example 61] | 81.79 nm | 5.82 | 0.076 |  |  | 
CCCCCCCC(=O)OCCCCCCCCCC(=O)OCc1cc(COC(=O)CCCCCCCCCOC(=O)CCCCCCC)cc(CN(C)C)c1 [Example 86] | 120.3 nm | 5.84 | 0.058 | 128.7 nm | 0.05 | 
CCCCCCCC(=O)OCC(COC(=O)CCCCCCC)COc1cc(CN(C)C)cc(OCC(COC(=O)CCCCCCC)COC(=O)CCCCCCC)c1 [Example 111] | 161.9 nm | 6.27 | 0.048 |  |  | 
CCCCCCCC(=O)OC[C@H](CCOc1cc(CN(C)C)cc(OCC[C@@H](COC(=O)CCCCCCC)OC(=O)CCCCCCC)c1)OC(=O)CCCCCCC [Example 93] | 121.5 nm | 6 | 0.071 |  |  | 
CCCCCCCCCCCCC(=O)OCc1cc(COC(=O)CCCCCCCCCCCC)cc(CN(C)C)c1 [Example 34] | 113.8 nm | 5.95 | 0.036 | 126.0 nm | 0.06 | 
CCCCC/C=C\C/C=C\CCCCCCCC(=O)OCCCCCCCCOc1cc(CN(C)C)cc(OCCCCCCCCOC(=O)CCCCCCC/C=C\C/C=C\CCCCC)c1 [Example 46] | 102.4 nm | 6.18 | 0.135 |  |  | 
CCCCCCCC(=O)OCCCCCCOc1cc(CN(C)C)cc(OCCCCCCOC(=O)CCCCCCC)c1 [Example 48] | 152.3 nm | 5.93 | 0.105 |  |  | 
CCCCC/C=C\C/C=C\CCCCCCCCOc1cc(CN(C)C)cc(OCCCCCCCC/C=C\C/C=C\CCCCC)c1 [Example 2] |  | 5.57 | 0.067 |  | 0.04 | anti-RSV-F titer 2wp1 pool 1 ([4]; 2 weeks after first dose): 217; anti-RSV-F titer 2wp1 pool 2 ([4]; 2 weeks after first dose): 259; anti-RSV-F titer 2wp2 pool 1 ([4]; 2 weeks after second dose): 12785; anti-RSV-F titer 2wp2 pool 2 ([4]; 2 weeks after second dose): 8232; pKa ([2]; Table 5): 5.57; PDI ([3]; Table 5, PLK1-424 siRNA LNP, stealth lipid S011, 45/44/9/2): 0.1
CCCCCC(=O)OCCCCCCCCCCOc1cc(CN(C)C)cc(OCCCCCCCCCCOC(=O)CCCCC)c1 [Example 44] | 172.9 nm | 5.66 | 0.077 |  |  | 
CCCCCCCCCC(=O)OCCCC(=O)OCCCOc1cc(CN(C)C)cc(OCCCOC(=O)CCCOC(=O)CCCCCCCCC)c1 [Example 96] | 197.3 nm | 5.71 | 0.14 |  |  | 
CCCCCCCC/C=C\CCCCCCCC(=O)OCCCCOc1cc(CN(C)C)cc(OCCCCOC(=O)CCCCCCC/C=C\CCCCCCCC)c1 [Example 60] | 95.55 nm | 6.21 | 0.098 |  |  | 
CCCCC/C=C\C/C=C\CCCCCCCC(=O)OCCOc1cc(CN(C)C)cc(OCCOC(=O)CCCCCCC/C=C\C/C=C\CCCCC)c1 [Example 40] | 94.28 nm | 6.17 | 0.062 | 110.9 nm | 0.02 | 
CCCCCCCCCCCC(=O)OCCCCCCCCOc1cc(CN(C)C)cc(OCCCCCCCCOC(=O)CCCCCCCCCCC)c1 [Example 53] | 113.3 nm | 6.03 | 0.079 | 129.1 nm | 0.1 | 
CCCCC/C=C\C/C=C\CCCCCCCC(=O)OCCCCOc1cc(CN2CCCC2)cc(OCCCCOC(=O)CCCCCCC/C=C\C/C=C\CCCCC)c1 [Example 112] |  | 6.08 |  | 96.1 nm | 0.1 | 
CCCCC/C=C\C/C=C\CCCCCCCC(=O)OCCCCOc1cc(CN(CC)CC)cc(OCCCCOC(=O)CCCCCCC/C=C\C/C=C\CCCCC)c1C [Example 55] | 106.9 nm | 6.37 | 0.043 | 101.9 nm | 0.10 | 
CCCCCCCC(=O)OCC(CCCCOc1cc(CN(C)C)cc(OCCCCC(COC(=O)CCCCCCC)COC(=O)CCCCCCC)c1)COC(=O)CCCCCCC [Example 110] | 183.3 nm | 5.66 | 0.071 |  |  | 
CCCCC/C=C\CC=CCCCCCCCC(=O)OCCCCOc1cc(CN(C)C)cc(OCCCCOC(=O)CCCCCCCC=CC/C=C\CCCCC)c1C [Example 51] | 103.2 nm |  | 0.052 |  |  | 
CCCCC/C=C\C/C=C\CCCCCCCCOc1cc(COC(=O)CCN(C)C)cc(OCCCCCCCC/C=C\C/C=C\CCCCC)c1 [Example 14] |  | 6.11 | 0.059 |  |  | anti-RSV-F titer 4wp2 pool 1 ([4]; 4 weeks after second dose): 13687 and 21375; anti-RSV-F titer 4wp2 pool 2 ([4]; 4 weeks after second dose): 18851 and 21347
CCCCCCCC/C=C\CCCCCCCCOc1cc(CN(C)C)cc(OCCCCCCCC/C=C\CCCCCCCC)c1 [Example 1] |  | 5.59 |  |  | 0.05 | pKa ([2]; Table 5): 5.59
CCCCC/C=C\C/C=C\CCCCCCCCOC(=O)CCC(=O)OCc1cc(COC(=O)CCC(=O)OCCCCCCCC/C=C\C/C=C\CCCCC)cc(CN(C)C)c1 [Example 77] |  | 6.09 | 0.014 |  |  | 
